In US10168338B2, “Methods of identifying modulators of sestrin-gator-2 interaction for modulating mTORC1 activity” (Whitehead Institute for Biomedical Research, priority 2014, dated 2019):

Tests used:
[1] = target: T1, Sestrin-GATOR2 interaction (Homo sapiens, UniProt P58004); test: Effect of specific amino acids on Sestrin-GATOR2 interaction (FLAG-WDR24 immunoprecipitation, immunoblot); type: cell-based; details: HEK-293T stably expressing FLAG-WDR24; starvation/restimulation, pre- or post-lysis addition, washes of immunoprecipitates
T1 construct: To isolate the FLAG-WDR24/endogenous-Sestrin2 complex; endogenous in cells; host or cells: HEK-293T cells stably expressing FLAG-WDR24; Sestrin2 and the other GATOR2 subunits are endogenous
T1 sequence (P58004 1-480): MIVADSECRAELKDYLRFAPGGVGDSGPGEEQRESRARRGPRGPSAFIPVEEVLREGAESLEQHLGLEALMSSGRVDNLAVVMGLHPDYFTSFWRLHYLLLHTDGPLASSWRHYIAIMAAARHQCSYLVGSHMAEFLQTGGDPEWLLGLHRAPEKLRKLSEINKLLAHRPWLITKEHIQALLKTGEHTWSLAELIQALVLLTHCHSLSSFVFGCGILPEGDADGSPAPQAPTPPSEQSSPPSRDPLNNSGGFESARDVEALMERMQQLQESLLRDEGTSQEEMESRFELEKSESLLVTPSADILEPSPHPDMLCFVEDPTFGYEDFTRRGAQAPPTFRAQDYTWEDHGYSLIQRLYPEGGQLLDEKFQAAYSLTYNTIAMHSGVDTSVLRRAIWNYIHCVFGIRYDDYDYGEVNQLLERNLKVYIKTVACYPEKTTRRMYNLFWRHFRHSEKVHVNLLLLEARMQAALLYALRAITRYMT
Procedure: In order to further explore if specific amino acid levels affected the Sestrin-GATOR2 interaction, HEK-293T cells stably expressing the FLAG-tagged GATOR2 component WDR24 (and FLAG-tagged metap2 as a control) were starved of either all amino acids (ALL); only leucine, arginine, and lysine (LRK); only leucine (L); only arginine (R); or only lysine (K) for 50 minutes, or starved for 50 minutes and restimulated for 10 minutes with the indicated amino acids.
HEK-293T cells stably expressing the FLAG-tagged GATOR2 component WDR24 were starved of all amino acids for 50 minutes. Individual amino acids were added pre-lysis to the cell culture media or post-lysis to cell lysates prior to FLAG immunoprecipitation.
Finally, HEK-293T cells stably expressing the FLAG-tagged GATOR2 component WDR24 were starved of all amino acids for 50 minutes. Immunoprecipitates were subjected to washes containing the indicated amounts of leucine or arginine and analyzed along with cell lysates by immunoblotting for the indicated proteins as shown in FIG. 8C.

[2] = target: T2, GATOR2-Sestrin2 interaction (Homo sapiens, UniProt P58004); test: Sestrin2-GATOR2 interaction in HEK-293T cells after starvation/restimulation (co-immunoprecipitation); type: cell-based
T2 construct: To isolate the FLAG-WDR24/endogenous-Sestrin2 complex; endogenous in cells; host or cells: HEK-293T cells stably expressing FLAG-WDR24; Sestrin2 and the other GATOR2 subunits are endogenous
T2 sequence (P58004 1-480): T1 sequence (P58004 1-480)
Procedure: (§1) In order to determine the effect of amino acids on the GATOR2-Sestrin interaction, transfected cells were incubated in amino acid free RPMI for 50 minutes and then stimulated with amino acids for 10 minutes. For glucose starvation, cells were incubated in RPMI media lacking glucose but containing amino acids and dialyzed serum for 50 minutes, followed by a 10 minute restimulation with 5 mM D-Glucose. For insulin deprivation, cells were incubated in RPMI without serum for 50 minutes and restimulated with 1 μg/ml insulin for 10 minutes. Finally, when Torin1 or Rapamycin was used, cells were incubated with 250 nM of each throughout the starvation and restimulation period.
HEK-293T cells stably expressing FLAG-WDR24 or the control protein FLAG-metap2 (as described in Example 1) were starved for leucine, arginine, or all amino acids for 50 minutes. In some samples, cells were re-stimulated with leucine, arginine, or all amino acids for 10 minutes and then FLAG immunoprecipitates prepared from cell lysates. Immunoprecipitates and lysates were analyzed by immunoblotting for indicated proteins. Removal of either leucine or arginine from the cell media inhibited mTORC1 signaling, as indicated by S6K1 phosphorylation, to similar extents. Strikingly, however, only leucine starvation caused Sestrin2 to bind to GATOR2 inducing the interaction as effectively as complete amino acid starvation (FIG. 9A). […] Leucine starvation and stimulation also strongly regulated the interaction of endogenous Sestrin1, but not endogenous Sestrin3, with GATOR2 (Figure not shown).

mTORC1 = mTORC1 signaling in HEK-293T cells (S6K1 phosphorylation immunoblot); type: cell-based, human; details: Homo sapiens; HEK-293T starved of leucine 50 minutes, restimulated 10 minutes; read-out: half-maximal effect on mTORC1 activity in cells
Procedure: Immunoprecipitated proteins were denatured by the addition of 50 μl of sample buffer and boiling for 5 minutes as described (Kim et al., 2002), resolved by 8%-16% SDS-PAGE, and analyzed by immunoblotting using the appropriate antibody (antibodies to phospho-T389 S6K1, S6K1, Sestrin2, mTOR, Mios and FLAG all obtained from Cell Signaling Technology; antibodies to WDR24 and WDR59 were generously provided by Jianxin Xie at Cell Signaling Technology).
as §1

With `CC(C)C[C@H](N)C(=O)O` [leucine] the “disruption of the Sestrin-GATOR2 interaction” value [1] was “disrupts the Sestrin-GATOR2 interaction”, the EC50 ([2]; HEK-293T starved of leucine 50 minutes, restimulated 10 minutes, read-out: half-maximal effect on the Sestrin2-GATOR2 interaction in cells) was 20 to 40 µM and the “effect of re-addition on Sestrin2 binding to GATOR2 in cells” value ([2]; starved 50 minutes, re-stimulated 10 minutes) was “rapidly reversed the binding”. The EC50 (mTORC1) was 20 to 40 µM.
